Consider 23 compounds from patent US12037345B2, “Heterobicyclic compounds for inhibiting the activity of SHP2” (TAIHO PHARMACEUTICAL CO., LTD., priority 2018, dated 2024).

SMILES strings stand for the structures. pIC50: −log10 of the molar value.

The test system of assay [1] is pERK (phospho-p44/42 ERK) in HCC827 cells. Description: Cellular pERK Inhibition Assay, Method A (In-Cell Western). Format: cell-based. As to conditions: Homo sapiens, Table 19, head prints unit as "-M", read-out: pERK (IC50) Method A. The essentials: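 In-Cell Western: phospho-p44/42 ERK antibody staining of formalin-fixed HCC827 cells after compound exposure (serum-free medium, 0.2% DMSO, 37 °C, indicated time). Readings minus cell-free blanks were normalised to DMSO-treated wells. Relative IC50 came from four-parameter logistic fits of quadruplicates, given as single or mean values.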

Assay [2] addresses SHP2 (Homo sapiens (Human), UniProt Q06124). Description: SHP2 Biochemical Assay (DiFMUP conversion, pIRS1-activated). As to conditions: Table 19; head prints unit as "-M". The gist of the method: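 Rates of DiFMU formation were followed 30 min at ex 360/em 450 nm, with 50 μM DiFMUP, 10 pM SHP2 and pIRS1 peptide ([…]) after 30 min compound pre-incubation at pH 7.0 Bis-Tris propane. Four-parameter logistic IC50s in singlicate; repeat runs averaged.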

Sequence of SHP2 (Q06124 whole entry): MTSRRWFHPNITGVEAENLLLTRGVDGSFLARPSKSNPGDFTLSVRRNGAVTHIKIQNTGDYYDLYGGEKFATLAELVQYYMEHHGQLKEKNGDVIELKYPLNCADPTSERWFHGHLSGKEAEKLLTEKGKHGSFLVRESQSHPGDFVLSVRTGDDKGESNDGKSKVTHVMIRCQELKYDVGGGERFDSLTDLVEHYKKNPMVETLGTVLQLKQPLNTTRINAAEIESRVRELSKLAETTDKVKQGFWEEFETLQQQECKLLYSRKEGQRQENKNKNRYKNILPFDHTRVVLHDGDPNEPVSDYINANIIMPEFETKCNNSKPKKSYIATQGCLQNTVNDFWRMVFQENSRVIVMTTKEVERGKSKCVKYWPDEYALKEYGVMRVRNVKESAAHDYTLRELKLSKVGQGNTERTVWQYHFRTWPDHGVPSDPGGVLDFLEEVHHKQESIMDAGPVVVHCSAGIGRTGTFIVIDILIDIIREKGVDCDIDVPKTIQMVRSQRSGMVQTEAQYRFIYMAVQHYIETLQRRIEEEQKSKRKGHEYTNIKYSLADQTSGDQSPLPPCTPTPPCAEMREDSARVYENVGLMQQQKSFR

Consider `Cn1c(N2[C@@H]3CC[C@H]2C[C@@H](N)C3)nc2[nH]cc(-c3ccc4nnn(C)c4c3Cl)c2c1=O` [Example 74, 2-(endo-3-amino-8-azabicyclo[3.2.1]octan-8-yl)-5-(7-chloro-1-methyl-1H-benzo[d][1,2,3]triazol-6-yl)-3-methyl-3,7-dihydro-4H-pyrrolo[2,3-d]pyrimidin-4-one], for which the negative-log IC50 (pIC50) was 5.27 in assay [1] and 6.77 in assay [2].

Take `Cn1c(N2[C@@H]3CC[C@H]2C[C@@H](N)C3)nc2[nH]cc(-c3ccc4nn(CC(C)(C)O)cc4c3Cl)c2c1=O` [Example 75, 2-(endo-3-amino-8-azabicyclo[3.2.1]octan-8-yl)-5-(4-chloro-2-(2-hydroxy-2-methylpropyl)-2H-indazol-5-yl)-3-methyl-3,7-dihydro-4H-pyrrolo[2,3-d]pyrimidin-4-one]: the pIC50 in assay [1] was 5.68; in assay [2], 7.55.

Consider `Cc1cc(-c2c[nH]c3nc(N4[C@@H]5CC[C@H]4C[C@@H](N)C5)n(C)c(=O)c23)c(Cl)c2cn(C)nc12` [Example 76, 2-(endo-3-amino-8-azabicyclo[3.2.1]octan-8-yl)-5-(4-chloro-2,7-dimethyl-2H-indazol-5-yl)-3-methyl-3,7-dihydro-4H-pyrrolo[2,3-d]pyrimidin-4-one], for which the pIC50 was 6.74 in assay [1] and 7.51 in assay [2].

Regarding `Cn1c(N2[C@@H]3CC[C@H]2C[C@@H](N)C3)nc2[nH]cc(-c3ccc4[nH]ncc4c3Cl)c2c1=O` [Example 77], the results for the negative logarithm of the IC50 (pIC50) in assay [1] and in assay [2] were 5.72 and 7.40, respectively.

For `Cn1nc2ccc(-c3c[nH]c4nc(N5[C@@H]6CC[C@H]5C[C@@H](N)C6)n(C)c(=O)c34)c(Cl)c2c1Cl` [Example 78, 2-(endo-3-amino-8-azabicyclo[3.2.1]octan-8-yl)-5-(3,4-dichloro-2-methyl-2H-indazol-5-yl)-3-methyl-3,7-dihydro-4H-pyrrolo[2,3-d]pyrimidin-4-one], the pIC50 in assay [1] was 6.89; in assay [2], 8.22.

With `Cn1nc2ccc(-c3c[nH]c4nc(N5[C@@H]6CC[C@H]5C[C@@](C)(N)C6)n(C)c(=O)c34)c(Cl)c2c1Cl` [Example 79, 2-(endo-3-amino-3-methyl-8-azabicyclo[3.2.1]octan-8-yl)-5-(3,4-dichloro-2-methyl-2H-indazol-5-yl)-3-methyl-3,7-dihydro-4H-pyrrolo[2,3-d]pyrimidin-4-one], the pIC50 is 6.80 in assay [1] and 8.26 in assay [2].

For the compound `Cn1nc2ccc(-c3c[nH]c4nc(N5CC6COCC(C5)N6)n(C)c(=O)c34)c(Cl)c2c1Cl` [Example 80, 2-(3-oxa-7,9-diazabicyclo[3.3.1]nonan-7-yl)-5-(3,4-dichloro-2-methyl-2H-indazol-5-yl)-3-methyl-3,7-dihydro-4H-pyrrolo[2,3-d]pyrimidin-4-one], the results for the negative-log IC50 (pIC50) in assay [1] and in assay [2] were 6.57 and 7.96, respectively.

As for `Cc1nc2ccc(-c3c[nH]c4nc(N5CC6COCC(C5)N6)n(C)c(=O)c34)c(Cl)c2s1` [Example 81, 2-(3-oxa-7,9-diazabicyclo[3.3.1]nonan-7-yl)-5-(7-chloro-2-methylbenzo[d]thiazol-6-yl)-3-methyl-3,7-dihydro-4H-pyrrolo[2,3-d]pyrimidin-4-one], the pIC50 in assay [1] is 6.11; in assay [2], 7.85.

On to `CN(C)C(=O)Cn1nc2ccc(-c3c[nH]c4nc(N5C6CCCC5CNC6)n(C)c(=O)c34)c(Cl)c2c1Cl` [Example 82, 2-(5-(2-(3,9-diazabicyclo[3.3.1]nonan-9-yl)-3-methyl-4-oxo-4,7-dihydro-3H-pyrrolo[2,3-d]pyrimidin-5-yl)-3,4-dichloro-2H-indazol-2-yl)-N,N-dimethylacetamide], for which the pIC50 in assay [1] is 6.04; in assay [2], 7.85.

Consider `CN(C)C(=O)CCn1nc2ccc(-c3c[nH]c4nc(N5C6CCCC5CNC6)n(C)c(=O)c34)c(Cl)c2c1Cl` [Example 83, 3-(5-(2-(3,9-diazabicyclo[3.3.1]nonan-9-yl)-3-methyl-4-oxo-4,7-dihydro-3H-pyrrolo[2,3-d]pyrimidin-5-yl)-3,4-dichloro-2H-indazol-2-yl)-N,N-dimethylpropanamide], for which the pIC50 is 6.72 in assay [1] and 7.96 in assay [2].

For `CN(C)C(=O)Cc1nc2ccc(-c3c[nH]c4nc(N5C6CCCC5CNC6)n(C)c(=O)c34)c(Cl)c2s1` [Example 84, 2-(6-(2-(3,9-diazabicyclo[3.3.1]nonan-9-yl)-3-methyl-4-oxo-4,7-dihydro-3H-pyrrolo[2,3-d]pyrimidin-5-yl)-7-chlorobenzo[d]thiazol-2-yl)-N,N-dimethylacetamide], the pIC50 in assay [1] was 6.26; in assay [2], 7.74.

As for `Cn1cc2c(Cl)c(-c3c[nH]c4nc(N5C6CNCC5COC6)n(C)c(=O)c34)ccc2n1` [Example 85, 2-(3-oxa-7,9-diazabicyclo[3.3.1]nonan-9-yl)-5-(4-chloro-2-methyl-2H-indazol-5-yl)-3-methyl-3,7-dihydro-4H-pyrrolo[2,3-d]pyrimidin-4-one], the figures for the pIC50 in assay [1] and in assay [2] were 6.19 and 7.89, respectively.

As to `CN(C)C(=O)Cn1cc2c(Cl)c(-c3c[nH]c4nc(N5C6CCC5CNC6)n(C)c(=O)c34)ccc2n1` [Example 86, 2-(5-(2-(3,8-diazabicyclo[3.2.1]octan-8-yl)-3-methyl-4-oxo-4,7-dihydro-3H-pyrrolo[2,3-d]pyrimidin-5-yl)-4-chloro-2H-indazol-2-yl)-N,N-dimethylacetamide], the pIC50 is 5.28 in assay [1] and 7.23 in assay [2].

Consider `Cn1nc2ccc(-c3c[nH]c4nc(N5C6CCC5CNC6)n(C)c(=O)c34)c(Cl)c2n1` [Example 87, 2-(3,8-diazabicyclo[3.2.1]octan-8-yl)-5-(4-chloro-2-methyl-2H-benzo[d][1,2,3]triazol-5-yl)-3-methyl-3,7-dihydro-4H-pyrrolo[2,3-d]pyrimidin-4-one], for which the pIC50 in assay [1] was 6.24; in assay [2] it was 7.17.

For `CN(C)C(=O)CCn1cc2c(Cl)c(-c3c[nH]c4nc(N5C6CCC5CNC6)n(C)c(=O)c34)ccc2n1` [Example 88, 3-(5-(2-(3,8-diazabicyclo[3.2.1]octan-8-yl)-3-methyl-4-oxo-4,7-dihydro-3H-pyrrolo[2,3-d]pyrimidin-5-yl)-4-chloro-2H-indazol-2-yl)-N,N-dimethylpropanamide], the pIC50 in assay [1] is 5.35; in assay [2] it was 7.28.

Take `CN(C)C(=O)CCn1nc2ccc(-c3c[nH]c4nc(N5C6CCC5CNC6)n(C)c(=O)c34)c(Cl)c2c1Cl` [Example 89, 3-(5-(2-(3,8-diazabicyclo[3.2.1]octan-8-yl)-3-methyl-4-oxo-4,7-dihydro-3H-pyrrolo[2,3-d]pyrimidin-5-yl)-3,4-dichloro-2H-indazol-2-yl)-N,N-dimethylpropanamide]: the pIC50 is 6.27 in assay [1] and 7.85 in assay [2].

For `Cc1nc2ccc(-c3c[nH]c4nc(N5C6CCC5CNC6)n(C)c(=O)c34)c(Cl)c2s1` [Example 90, 2-(3,8-diazabicyclo[3.2.1]octan-8-yl)-5-(7-chloro-2-methylbenzo[d]thiazol-6-yl)-3-methyl-3,7-dihydro-4H-pyrrolo[2,3-d]pyrimidin-4-one], the pIC50 in assay [1] was 6.13; in assay [2], 7.92.

On to `CCn1cc2c(Cl)c(-c3c[nH]c4nc(N5C6CCC5CNC6)n(C)c(=O)c34)ccc2n1` [Example 91, 2-(3,8-diazabicyclo[3.2.1]octan-8-yl)-5-(4-chloro-2-ethyl-2H-indazol-5-yl)-3-methyl-3,7-dihydro-4H-pyrrolo[2,3-d]pyrimidin-4-one], for which the pIC50 in assay [1] is 6.47; in assay [2], 7.92.

Regarding `Cc1c2c(Cl)c(-c3c[nH]c4nc(N5[C@H]6CC[C@@H]5[C@H](N)C6)n(C)c(=O)c34)ccc2nn1C` [Example 94, 2-((1R,2R,4S)-2-amino-7-azabicyclo[2.2.1]heptan-7-yl)-5-(4-chloro-2,3-dimethyl-2H-indazol-5-yl)-3-methyl-3,7-dihydro-4H-pyrrolo[2,3-d]pyrimidin-4-one], the pIC50 in assay [1] is 7.14; in assay [2], 8.30.

As to `Cc1nc2ccc(-c3c[nH]c4nc(N5[C@H]6CC[C@@H]5[C@H](N)C6)n(C)c(=O)c34)c(Cl)c2s1` [Example 95, 2-((1R,2R,4S)-2-amino-7-azabicyclo[2.2.1]heptan-7-yl)-5-(7-chloro-2-methylbenzo[d]thiazol-6-yl)-3-methyl-3,7-dihydro-4H-pyrrolo[2,3-d]pyrimidin-4-one], the pIC50 is 7.17 in assay [1] and 8.60 in assay [2].

In the case of `CN[C@@H]1C[C@@H]2CC[C@H]1N2c1nc2[nH]cc(-c3ccc4nn(C)cc4c3Cl)c2c(=O)n1C` [Example 97, 5-(4-chloro-2-methyl-2H-indazol-5-yl)-3-methyl-2-((1R,2R,4S)-2-(methylamino)-7-azabicyclo[2.2.1]heptan-7-yl)-3,7-dihydro-4H-pyrrolo[2,3-d]pyrimidin-4-one], the negative-log IC50 (pIC50) in assay [1] is 7.09; in assay [2], 8.11.

Regarding `CCn1cc2c(Cl)c(-c3c[nH]c4nc(N5[C@H]6CC[C@@H]5[C@H](NC)C6)n(C)c(=O)c34)ccc2n1` [Example 98, 5-(4-chloro-2-ethyl-2H-indazol-5-yl)-3-methyl-2-((1R,2R,4S)-2-(methylamino)-7-azabicyclo[2.2.1]heptan-7-yl)-3,7-dihydro-4H-pyrrolo[2,3-d]pyrimidin-4-one], the pIC50 was 6.72 in assay [1] and 8.00 in assay [2].

With `Cn1nc2ccc(-c3c[nH]c4nc(N5C6CCCC5CNC6)n(C)c(=O)c34)c(Cl)c2c1Cl` [Example 99, 2-(3,9-diazabicyclo[3.3.1]nonan-9-yl)-5-(3,4-dichloro-2-methyl-2H-indazol-5-yl)-3-methyl-3,7-dihydro-4H-pyrrolo[2,3-d]pyrimidin-4-one], the pIC50 is 7.24 in assay [1] and 8.35 in assay [2].

As usually defined, the pIC50 is the IC50 on a negative log10 scale, so that one unit is a factor of ten.
